Data reported in ChEMBL document CHEMBL6109125, “A New Protractor Potentiates Glucagon-Like Peptide 1 with Slow-Release Depot and Long-Term Action” (J Med Chem, 2025).

Assays:
[1] = target: T1, Glucagon-like peptide 1 receptor (Homo sapiens, UniProt P43220); test: Agonist activity at GLP-1R (unknown origin) expressed in HEK293 cells co-expressing CRE-Luc assessed as increase in intracellular cAMP accumulation in presence of 2% HSA by luciferase based assay; assay type: functional, cell-based; details: read-out: EC50
[2] = target: T1, Glucagon-like peptide 1 receptor; test: Agonist activity at GLP-1R (unknown origin) expressed in HEK293 cells co-expressing CRE-Luc assessed as increase in intracellular cAMP accumulation by luciferase based assay; assay type: functional, cell-based; details: read-out: EC50

T1 sequence (P43220 whole entry): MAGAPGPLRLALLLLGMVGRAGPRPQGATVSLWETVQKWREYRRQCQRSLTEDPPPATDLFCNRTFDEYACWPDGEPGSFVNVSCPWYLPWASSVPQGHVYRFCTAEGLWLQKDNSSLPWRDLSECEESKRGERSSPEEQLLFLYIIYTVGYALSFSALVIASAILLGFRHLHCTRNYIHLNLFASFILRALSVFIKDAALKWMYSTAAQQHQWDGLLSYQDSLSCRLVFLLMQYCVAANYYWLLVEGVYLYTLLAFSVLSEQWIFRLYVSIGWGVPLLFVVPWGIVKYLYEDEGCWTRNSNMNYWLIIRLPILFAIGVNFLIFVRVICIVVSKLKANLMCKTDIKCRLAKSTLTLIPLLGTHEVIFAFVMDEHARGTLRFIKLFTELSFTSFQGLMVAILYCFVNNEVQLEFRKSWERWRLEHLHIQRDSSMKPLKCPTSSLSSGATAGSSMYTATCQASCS

## CCOc1ccc(Nc2ccc(/C(=C3C=C/C(=[N+](\CC)Cc4cccc(S(=O)(=O)[O-])c4)C=C/3C)c3ccc(N(CC)Cc4cccc(S(=O)(=O)NCCCCCC(=O)N[C@@H](CCC(=O)NCCOCCOCC(=O)NCCCC[C@H](NC(=O)[C@H](C)NC(=O)[C@H](C)NC(=O)[C@H](CCC(N)=O)NC(=O)CNC(=O)[C@H](CCC(=O)O)NC(=O)[C@H](CC(C)C)NC(=O)[C@H](Cc5ccc(O)cc5)NC(=O)[C@H](CO)NC(=O)[C@H](CO)NC(=O)[C@@H](NC(=O)[C@H](CC(=O)O)NC(=O)[C@H](CO)NC(=O)[C@@H](NC(=O)[C@H](Cc5ccccc5)NC(=O)[C@@H](NC(=O)CNC(=O)[C@H](CCC(=O)O)NC(=O)C(C)(C)NC(=O)[C@@H](N)Cc5c[nH]cn5)[C@@H](C)O)[C@@H](C)O)C(C)C)C(=O)N[C@@H](CCC(=O)O)C(=O)N[C@@H](Cc5ccccc5)C(=O)N[C@H](C(=O)N[C@@H](C)C(=O)N[C@@H](Cc5c[nH]c6ccccc56)C(=O)N[C@@H](CC(C)C)C(=O)N[C@H](C(=O)N[C@@H](CCCNC(=N)N)C(=O)NCC(=O)N[C@@H](CCCNC(=N)N)C(=O)NCC(=O)O)C(C)C)[C@@H](C)CC)C(=O)O)c4)cc3C)cc2)cc1
[1]
  EC50: 3.29 pM
[2]
  EC50: 0.63 pM

## CCOc1ccc(Nc2ccc(/C(=C3C=C/C(=[N+](\CC)Cc4cccc(S(=O)(=O)[O-])c4)C=C/3C)c3ccc(N(CC)Cc4cccc(S(=O)(=O)NCCCCCC(=O)NCCOCCOCC(=O)NCCCC[C@H](NC(=O)[C@H](C)NC(=O)[C@H](C)NC(=O)[C@H](CCC(N)=O)NC(=O)CNC(=O)[C@H](CCC(=O)O)NC(=O)[C@H](CC(C)C)NC(=O)[C@H](Cc5ccc(O)cc5)NC(=O)[C@H](CO)NC(=O)[C@H](CO)NC(=O)[C@@H](NC(=O)[C@H](CC(=O)O)NC(=O)[C@H](CO)NC(=O)[C@@H](NC(=O)[C@H](Cc5ccccc5)NC(=O)[C@@H](NC(=O)CNC(=O)[C@H](CCC(=O)O)NC(=O)C(C)(C)NC(=O)[C@@H](N)Cc5c[nH]cn5)[C@@H](C)O)[C@@H](C)O)C(C)C)C(=O)N[C@@H](CCC(=O)O)C(=O)N[C@@H](Cc5ccccc5)C(=O)N[C@H](C(=O)N[C@@H](C)C(=O)N[C@@H](Cc5c[nH]c6ccccc56)C(=O)N[C@@H](CC(C)C)C(=O)N[C@H](C(=O)N[C@@H](CCCNC(=N)N)C(=O)NCC(=O)N[C@@H](CCCNC(=N)N)C(=O)NCC(=O)O)C(C)C)[C@@H](C)CC)c4)cc3C)cc2)cc1
[1]
  EC50: 14.5 pM
[2]
  EC50: 3.35 pM

## CCOc1ccc(Nc2ccc(/C(=C3C=C/C(=[N+](\CC)Cc4ccc(S(=O)(=O)[O-])cc4)C=C/3C)c3ccc(N(CC)Cc4cccc(S(=O)(=O)NCCCCCC(=O)NCCCC[C@H](NC(=O)[C@H](C)NC(=O)[C@H](C)NC(=O)[C@H](CCC(N)=O)NC(=O)CNC(=O)[C@H](CCC(=O)O)NC(=O)[C@H](CC(C)C)NC(=O)[C@H](Cc5ccc(O)cc5)NC(=O)[C@H](CO)NC(=O)[C@H](CO)NC(=O)[C@@H](NC(=O)[C@H](CC(=O)O)NC(=O)[C@H](CO)NC(=O)[C@@H](NC(=O)[C@H](Cc5ccccc5)NC(=O)[C@@H](NC(=O)CNC(=O)[C@H](CCC(=O)O)NC(=O)C(C)(C)NC(=O)[C@@H](N)Cc5c[nH]cn5)[C@@H](C)O)[C@@H](C)O)C(C)C)C(=O)N[C@@H](CCC(=O)O)C(=O)N[C@@H](Cc5ccccc5)C(=O)N[C@H](C(=O)N[C@@H](C)C(=O)N[C@@H](Cc5c[nH]c6ccccc56)C(=O)N[C@@H](CC(C)C)C(=O)N[C@H](C(=O)N[C@@H](CCCNC(=N)N)C(=O)NCC(=O)N[C@@H](CCCNC(=N)N)C(=O)NCC(=O)O)C(C)C)[C@@H](C)CC)c4)cc3C)cc2)cc1
[1]
  EC50: 8.82 pM
